The test addresses T1, human TLR7 (Homo sapiens, UniProt Q9NYK1).
T1 construct: host or cells: HEK293-Blue-hTLR-7 (HEK293)
T1 sequence (Q9NYK1 27-1049): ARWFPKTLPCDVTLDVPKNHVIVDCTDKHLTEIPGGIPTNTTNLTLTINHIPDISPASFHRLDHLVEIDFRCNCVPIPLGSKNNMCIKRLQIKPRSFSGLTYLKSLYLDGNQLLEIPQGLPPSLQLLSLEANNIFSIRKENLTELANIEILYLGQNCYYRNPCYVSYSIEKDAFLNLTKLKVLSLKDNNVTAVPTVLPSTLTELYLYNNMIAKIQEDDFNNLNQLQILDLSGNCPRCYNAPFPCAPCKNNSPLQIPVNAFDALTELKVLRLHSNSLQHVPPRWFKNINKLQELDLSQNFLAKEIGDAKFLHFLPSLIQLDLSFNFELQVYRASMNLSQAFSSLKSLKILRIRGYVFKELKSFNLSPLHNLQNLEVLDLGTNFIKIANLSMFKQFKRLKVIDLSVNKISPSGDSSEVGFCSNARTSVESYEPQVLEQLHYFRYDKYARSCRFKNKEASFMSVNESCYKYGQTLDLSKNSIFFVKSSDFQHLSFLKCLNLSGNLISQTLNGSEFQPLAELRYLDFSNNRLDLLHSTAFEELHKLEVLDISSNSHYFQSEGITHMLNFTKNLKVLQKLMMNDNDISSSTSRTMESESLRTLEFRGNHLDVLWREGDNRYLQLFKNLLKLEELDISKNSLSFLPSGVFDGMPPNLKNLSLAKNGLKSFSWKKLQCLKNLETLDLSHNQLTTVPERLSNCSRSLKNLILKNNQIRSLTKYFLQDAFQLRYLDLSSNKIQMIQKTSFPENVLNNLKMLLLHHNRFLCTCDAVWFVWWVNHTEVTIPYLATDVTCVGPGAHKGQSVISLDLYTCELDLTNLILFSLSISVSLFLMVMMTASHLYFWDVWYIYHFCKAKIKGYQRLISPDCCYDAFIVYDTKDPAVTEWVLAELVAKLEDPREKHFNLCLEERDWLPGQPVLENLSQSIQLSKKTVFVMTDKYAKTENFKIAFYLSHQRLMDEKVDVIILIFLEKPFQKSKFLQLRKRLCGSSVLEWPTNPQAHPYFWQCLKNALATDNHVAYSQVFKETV
The test is described as follows: HEK293-Blue-hTLR-7 cells assay. The test is classed as cell-based. As to conditions: HEK293-Blue-hTLR7 cells, R848 stimulation, 20 hrs, SEAP reporter; read-out: HEK/hTLR7 IC50. Here is the method: The following tests were carried out in order to determine the activity of the compounds of formula (I) and (Ia) in HEK293-Blue-hTLR-7/8/9 cells assay.
HEK293-Blue-hTLR-7 cells assay:
A stable HEK293-Blue-hTLR-7 cell line was purchased from InvivoGen (Cat. #: hkb-htlr7, San Diego, Calif., USA). These cells were originally designed for studying the stimulation of human TLR7 by monitoring the activation of NE-κB. A SEAP (secreted embryonic alkaline phosphatase) reporter gene was placed under the control of the IFN-β minimal promoter fused to five NE-κB and AP-1-binding sites. The SEAP was induced by activating NE-κB and AP-1 via stimulating HEK-Blue hTLR7 cells with TLR7 ligands. Therefore the reporter expression was declined by TLR7 antagonist under the stimulation of a ligand, such as R848 (Resiquimod), for incubation of 20 hrs. The cell culture supernatant SEAP reporter activity was determined using QUANTI-Blue™ kit (Cat. #: rep-qbl, Invivogen, San Diego, Ca, USA) at a wavelength of 640 nm, a detection medium that turns purple or blue in the presence of alkaline phosphatase.
HEK293-Blue-hTLR7 cells were incubated at a density of 250,000-450,000 cells/mL in a volume of 170 μL in a 96-well plate in Dulbecco's Modified Eagle's medium (DMEM) containing 4.5 g/L glucose, 50 U/mL penicillin, […], […], 2 mM L-glutamine, 10% (v/v) heat-inactivated fetal bovine serum with addition of 20 μL test compound in a serial dilution in the presence of final DMSO at 1% and 10 μL of 20 uM R848 in above DMEM, perform incubation under 37° C. in a CO2 incubator for 20 hrs. Then 20 μL of the supernatant from each well was incubated with 180 μL Quanti-blue substrate solution at 37° C. for 2 hrs and the absorbance was read at 620˜655 nm using a spectrophotometer. The signalling pathway that TLR7 activation leads to downstream NE-κB activation has been widely accepted, and therefore similar reporter assay was modified for evaluating TLR7 antagonist.

Some results are limits rather than exact numbers.

For `Cc1cc(N2CCC[C@@H](N(C)C[C@H]3CN(c4ccc(C#N)c5ncccc45)C[C@@H](C)O3)C2)cc(CO)n1` [Example 35], the IC50 worked out at 17 nM.
As for `Cc1cc(N2CC3(CN(C[C@H]4CN(c5ccc(C#N)c6ncccc56)C[C@@H](C)O4)C3)C2)cc(CO)n1` [Example 1, 5-[(2S,6R)-2-[[2-[2-(hydroxymethyl)-6-methyl-4-pyridyl]-2,6-diazaspiro[3.3]heptan-6-yl]methyl]-6-methyl-morpholin-4-yl]quinoline-8-carbonitrile], the figure is 28 nM.
As for `Cc1cc(N2CC(N(C)C[C@H]3CN(c4ccc(C#N)c5ncccc45)C[C@@H](C)O3)C2)cc(CO)n1` [Example 37], the figure is 34 nM; as for `Cc1cc(N2CCN(C[C@H]3CN(c4ccc(C#N)c5ncccc45)C[C@@H](C)O3)[C@H](C)C2)cc(CO)n1` [Example 4B], 10 nM.
Regarding `Cc1cc(N2CCOC3CN(CC4CN(c5ccc(C#N)c6ncccc56)CC(C)O4)CC32)cc(C)n1` (single isomer, unassigned) [Example 17B], the IC50 was 11 nM.
As for `Cc1cc(N2CCC23CN(C[C@H]2CN(c4ccc(C#N)c5ncccc45)C[C@@H](C)O2)C3)cc(CO)n1` [Example 12], the figure is 13 nM; as for `Cc1cc(N2CC(NC[C@H]3CN(c4ccc(C#N)c5ncccc45)C[C@@H](C)O3)CC(F)(F)C2)cc(CO)n1` (some centres unmarked) [Example 36], 17 nM.
On to `C[C@@H]1CN(c2ccc(C#N)c3ncccc23)C[C@H](CNC2CCN(c3ccnc(N)c3)CC2)O1` [Example 20, 5-[(2S,6R)-2-[[[1-(2-amino-4-pyridyl)-4-piperidyl]amino]methyl]-6-methyl-morpholin-4-yl]quinoline-8-carbonitrile], for which the IC50 stood at 200 nM.
On to `Cc1cc(NC2CCN(C[C@H]3CN(c4ccc(C#N)c5ncccc45)C[C@@H](C)O3)CC2)cc(CO)n1` [Example 5], for which the IC50 amounted to 59 nM.
As to `Cc1cc(N2CCOC3(CN(C[C@H]4CN(c5ccc(C#N)c6ncccc56)C[C@@H](C)O4)C3)C2)ccn1` [Example 16], the IC50 was less than 3 nM.
On to `Cc1cc(N2CC[C@H](NC[C@H]3CN(c4ccc(C#N)c5ncccc45)C[C@@H](C)O3)C2)cc(CO)n1` [Example 29], for which the IC50 was 156 nM.
Regarding `Cc1cc(N2CC(NC[C@H]3CN(c4ccc(C#N)c5ncccc45)C[C@@H](C)O3)C2)cc(CO)n1` [Example 30], the IC50 amounted to 65 nM.
Turning to `Cc1cc(N2CCC3(CN(C[C@H]4CN(c5ccc(C#N)c6ncccc56)C[C@@H](C)O4)C3)C2)cc(C)n1` [Example 9], the IC50 amounted to 16 nM.
With `CNc1cc(N2CCN(C[C@H]3CN(c4ccc(C#N)c5ncccc45)C[C@@H](C)O3)CC2)cc(C)n1` [Example 42, 5-[(2R,6S)-2-methyl-6-[[4-[2-methyl-6-(methylamino)-4-pyridyl]piperazin-1-yl]methyl]morpholin-4-yl]quinoline-8-carbonitrile], the IC50 was 13 nM.
As for `C[C@@H]1CN(c2ccc(C#N)c3ncccc23)C[C@H](CN[C@@H]2CCCN(c3ccnc(N)c3)C2)O1` [Example 21, 5-[(2S,6R)-2-[[[(3R)-1-(2-amino-4-pyridyl)-3-piperidyl]amino]methyl]-6-methyl-morpholin-4-yl]quinoline-8-carbonitrile], the IC50 was determined as 62 nM.
On to `Cc1cc(N2CC[C@H](F)[C@H](NC[C@H]3CN(c4ccc(C#N)c5ncccc45)C[C@@H](C)O3)C2)cc(CO)n1` [Example 33], for which the IC50 was determined as 12 nM.
For `Cc1cc(N2CCN(C[C@H]3CN(c4ccc(C#N)c5ncccc45)C[C@@H](C)O3)CC2)cc(CO)n1` [Example 50], the IC50 was 10 nM.
As for `CC(O)c1cc(N2CC3(CN(C[C@H]4CN(c5ccc(C#N)c6ncccc56)C[C@@H](C)O4)C3)C2)ccn1` (stereo partly drawn) [Example 46, 5-[(2S,6R)-2-[[2-[2-(1-hydroxyethyl)-4-pyridyl]-2,6-diazaspiro[3.3]heptan-6-yl]methyl]-6-methyl-morpholin-4-yl]quinoline-8-carbonitrile], the IC50 came out at 32 nM.
In the case of `Cc1cc(N2C[C@H]3CN(C[C@H]4CN(c5ccc(C#N)c6ncccc56)C[C@@H](C)O4)C[C@H]3C2)cc(CO)n1` [Example 10], the IC50 worked out at 57 nM.
Regarding `Cc1cc(N2CC[C@@H](NC[C@H]3CN(c4ccc(C#N)c5ncccc45)C[C@@H](C)O3)C2)cc(CO)n1` [Example 28], the IC50 came to 122 nM.
As for `C[C@@H]1CN(c2ccc(C#N)c3ncccc23)C[C@H](CN[C@H]2CCCN(c3ccnc(N)c3)C2)O1` [Example 22], the IC50 was 37 nM.
Regarding `C[C@@H]1CN(c2ccc(C#N)c3ncccc23)C[C@H](CN2CC3(C2)CN(c2ccnc(C4CC4)c2)CCO3)O1` [Example 3, 5-[(2S,6R)-2-[[8-(2-cyclopropyl-4-pyridyl)-5-oxa-2,8-diazaspiro[3.5]nonan-2-yl]methyl]-6-methyl-morpholin-4-yl]quinoline-8-carbonitrile], the IC50 is less than 3 nM.
As for `Cc1cc(N2CCN(C[C@H]3CN(c4ccc(C#N)c5ncccc45)C[C@@H](C)O3)[C@@H](C)C2)cc(CO)n1` [Example 4A], the figure is 9 nM; as for `Cc1cc(N2CCOC3(CN(C[C@H]4CN(c5ccc(C#N)c6ncccc56)C[C@@H](C)O4)C3)C2)cc(C)n1` [Example 14], less than 3 nM.
In the case of `Cc1cc(N2CC[C@@H](F)[C@H](NC[C@H]3CN(c4ccc(C#N)c5ncccc45)C[C@@H](C)O3)C2)cc(CO)n1` [Example 34], the IC50 stood at 12 nM.
In the case of `Cc1cc(N2CCOC3CN(CC4CN(c5ccc(C#N)c6ncccc56)CC(C)O4)CC32)cc(C)n1` (single isomer, unassigned) [Example 17A], the IC50 was less than 3 nM.
The same measure for `Cc1cc(N2CCC(NC[C@H]3CN(c4ccc(C#N)c5ncccc45)C[C@@H](C)O3)CC2)cc(CO)n1` [Example 23]: 229 nM.
Turning to `Cc1cc(N2CCC23CN(C[C@H]2CN(c4ccc(C#N)c5ncccc45)C[C@@H](C)O2)C3)ccn1` [Example 15], the IC50 was 7 nM.
As for `Cc1cc(N2CCC[C@H](N(C)C[C@H]3CN(c4ccc(C#N)c5ncccc45)C[C@@H](C)O3)C2)cc(CO)n1` [Example 38], the figure is 35 nM; as for `Cc1cc(N2CCC[C@@H](NC[C@H]3CN(c4ccc(C#N)c5ncccc45)C[C@@H](C)O3)C2)cc(CO)n1` [Example 24], 26 nM.
As for `C[C@@H]1CN(c2ccc(C#N)c3ncccc23)C[C@H](CN2CCN(c3cc(N)nc(CO)c3)CC2)O1` [Example 45, 5-[(2S,6R)-2-[[4-[2-amino-6-(hydroxymethyl)-4-pyridyl]piperazin-1-yl]methyl]-6-methyl-morpholin-4-yl]quinoline-8-carbonitrile], the figure is 39 nM; as for `Cc1cc(N2CCN(C[C@H]3CN(c4ccc(C#N)c5ncccc45)C[C@@H](C)O3)CC2)cc(N)n1` [Example 40, 5-[(2S,6R)-2-[[4-(2-amino-6-methyl-4-pyridyl)piperazin-1-yl]methyl]-6-methyl-morpholin-4-yl]quinoline-8-carbonitrile], 8 nM.
